Values of other authors in patent US6479458B1, “Targeting the reverse mode of the Na+/Ca2+ exchanger for the treatment of optic neuropathy associated with glaucoma and ischemic optic neuropathy” (Allergan, Inc., priority 2001, dated 2002).

Experiments:
[1] = tested on: sodium-calcium exchange
[2] = tested on: Na+/Ca2+ exchanger; settings: variety of cell types including neurons

| Molecule | inhibition of sodium-calcium exchange [1] | block of the reverse mode of the Na+/Ca2+ exchanger [2] |
| --- | --- | --- |
| cyclosporin A | specific activity in the inhibition of sodium-calcium exchange | – |
| CS(=O)(=O)O.N=C(N)SCCc1ccc(OCc2ccc([N+](=O)[O-])cc2)cc1 [KB-R743] | – | preferentially block the reverse mode |
